The first assay addresses T1, TRKA (Homo sapiens, UniProt P04629).
T1 construct: purchased Carna Biosciences 08-186
Kind of assay: In vitro biochemical HTRF KinEASE kinase inhibition, TRKA.
Settings: not given
In general terms: In TR-FRET formats the signal depends on donor and acceptor labels being close together.
T1 sequence (P04629 33-796): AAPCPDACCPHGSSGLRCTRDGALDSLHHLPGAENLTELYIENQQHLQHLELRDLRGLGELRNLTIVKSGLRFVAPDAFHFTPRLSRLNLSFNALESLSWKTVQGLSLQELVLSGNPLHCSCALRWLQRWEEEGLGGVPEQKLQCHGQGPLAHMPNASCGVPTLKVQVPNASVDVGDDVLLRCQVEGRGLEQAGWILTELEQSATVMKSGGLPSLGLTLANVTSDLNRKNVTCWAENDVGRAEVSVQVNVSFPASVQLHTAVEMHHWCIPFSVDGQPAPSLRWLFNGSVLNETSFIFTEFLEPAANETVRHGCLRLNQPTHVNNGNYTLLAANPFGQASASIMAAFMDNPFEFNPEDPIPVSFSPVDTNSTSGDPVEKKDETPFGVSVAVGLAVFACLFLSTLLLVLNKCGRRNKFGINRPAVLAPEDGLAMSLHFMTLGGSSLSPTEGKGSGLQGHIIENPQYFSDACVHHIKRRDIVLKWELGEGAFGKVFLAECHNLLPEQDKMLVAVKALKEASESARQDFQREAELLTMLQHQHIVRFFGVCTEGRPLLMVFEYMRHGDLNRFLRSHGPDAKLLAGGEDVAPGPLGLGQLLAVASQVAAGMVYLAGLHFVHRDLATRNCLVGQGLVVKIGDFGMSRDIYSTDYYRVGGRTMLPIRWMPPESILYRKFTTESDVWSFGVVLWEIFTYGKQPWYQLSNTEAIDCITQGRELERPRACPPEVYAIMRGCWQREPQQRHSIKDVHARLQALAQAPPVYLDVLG
Take `CC(Nc1ccn2ncc(-c3cn[nH]c3)c2n1)c1cc(F)ccc1OCC#N` (centres unmarked) [Compound b11-36, 2-(2-(1-((3-(1H-pyrazol-4-yl)pyrazolo [1,5-a]pyrimidin-5-yl)amino)ethyl)-4-fluorophenoxy) acetonitrile]: the IC50 turned out to be 0.0886 µM.

The same assay, now with this note: wild-type kinase, final ATP 3.727 μmol/L; read-out: TRKA IC50.
Consider `CC(Nc1ccn2ncc(-c3cnn(CC(F)F)c3)c2n1)c1cc(F)ccc1OCC(F)F` (centres unmarked) [Compound 6, N-(1-(2-(2,2-difluoroethoxy)-5-fluorophenyl)ethyl)-3-(1-(2,2-difluoroethyl)-1H-pyrazol-4-yl) pyrazolo [1,5-a] pyrimidin-5-amine], for which the 50% inhibitory concentration (IC50) was 0.0124 µM.
For `CC(Nc1ccn2ncc(-c3cnn(C4CCCCC4O)c3)c2n1)c1cc(F)ccc1OCC(F)F` (centres unmarked) [Compound 9, 2-(4-(5-((1-(2-(2,2-difluoroethoxy)-5-fluorophenyl)ethyl)amino)pyrazolo [1,5-a]pyrimidin-3-yl)-1H-pyrazol-1-yl) cyclohexan-1-ol], the IC50 was 0.0114 µM.
The same measure, in the same setting: the figure for `CC(Nc1ccn2ncc(-c3cnn(C4CCOCC4)c3)c2n1)c1cc(F)ccc1OCC(F)F` (centres unmarked) [Compound 11, N-(1-(2-(2,2-difluoroethoxy)-5-fluorophenyl)ethyl)-3-(1-(tetrahydro-2H-pyran-4-yl)-1H-pyrazol-4-yl) pyrazolo [1,5-a] pyrimidin-5-amine] is 0.0118 µM; for `CC(Nc1ccn2ncc(-c3cnn(S(C)(=O)=O)c3)c2n1)c1cc(F)ccc1OCC(F)F` (centres unmarked) [Compound 13, N-(1-(2-(2,2-difluoroethoxy)-5-fluorophenyl)ethyl)-3-(1-(methylsulfonyl)-1H-pyrazol-4-yl) pyrazolo [1,5-a] pyrimidin-5-amine] it is 0.0104 µM; for `CC(Nc1ccn2ncc(-c3cnn(C)c3)c2n1)c1cc(F)cc(F)c1OCC(F)F` (centres unmarked) [Compound 15, N-(1-(2-(2,2-difluoroethoxy)-3,5-difluorophenyl)ethyl)-3-(1-methyl-1H-pyrazol-4-yl) pyrazolo [1,5-a] pyrimidin-5-amine] it is 0.0117 µM.
`CC(Nc1ccn2ncc(-c3cnn(C)c3)c2n1)c1ccccc1OCC(F)F` (centres unmarked) [Compound 17, N-(1-(2-(2,2-difluoroethoxy)phenyl)ethyl)-3-(1-methyl-1H-pyrazol-4-yl) pyrazolo [1,5-a] pyrimidin-5-amine]: the half-inhibitory concentration (IC50) came out at 0.0183 µM.
Still for that read-out and setting: the figure for `CC(Nc1ccn2ncc(-c3cnn(C)c3)c2n1)c1cc(F)ccc1O` (centres unmarked) [Compound a1-2, 4-fluoro-2-(1-((3-(1-methyl-1H-pyrazol-4-yl)pyrazolo [1,5-a]pyrimidin-5-yl)amino)ethyl) phenol] is 0.009 µM; for `CC(Nc1ccn2ncc(-c3cnn(C4CCCCC4O)c3)c2n1)c1cc(F)ccc1O` (centres unmarked) [Compound a3-4, 4-fluoro-2-(1-((3-(1-(2-hydroxycyclohexyl)-1H-pyrazol-4-yl)pyrazolo [1,5-a]pyrimidin-5-yl)amino)ethyl) phenol] it is 0.0242 µM; for `CC(Nc1ccn2ncc(-c3cnn(CCO)c3)c2n1)c1cc(F)ccc1OC(F)F` (centres unmarked) [Compound a5-9, 2-(4-(5-((1-(2-(difluoromethoxy)-5-fluorophenyl)ethyl)amino)pyrazolo [1,5-a]pyrimidin-3-yl)-1H-pyrazol-1-yl) ethan-1-ol] it is 0.004 µM.
On the same count and under the same terms, the figure for `CC(Nc1ccn2ncc(-c3cnn(C4CCOCC4)c3)c2n1)c1cc(F)ccc1OC(F)F` (centres unmarked) [Compound a6-10, N-(1-(2-(difluoromethoxy)-5-fluorophenyl)ethyl)-3-(1-(tetrahydro-2H-pyran-4-yl)-1H-pyrazol-4-yl) pyrazolo [1,5-a] pyrimidin-5-amine] is 0.0265 µM.
`CCOc1ccc(F)cc1C(C)Nc1ccn2ncc(-c3cnn(C4CCOCC4)c3)c2n1` (centres unmarked) [Compound a7-12, N-(1-(2-ethoxy-5-fluorophenyl)ethyl)-3-(1-(tetrahydro-2H-pyran-4-yl)-1H-pyrazol-4-yl) pyrazolo [1,5-a] pyrimidin-5-amine]: the IC50 was 0.023 µM.
As to `CC(Nc1ccn2ncc(-c3cnn(C(F)F)c3)c2n1)c1cc(F)ccc1OCCO` (centres unmarked) [Compound a8-13, 2-(2-(1-((3-(1-(difluoromethyl)-1H-pyrazol-4-yl)pyrazolo [1,5-a]pyrimidin-5-yl)amino)ethyl)-4-fluorophenoxy) ethanol], the IC50 came out at 0.0409 µM.
Take `COCCOc1ccc(F)cc1C(C)Nc1ccn2ncc(-c3cnn(C4CCOCC4)c3)c2n1` (centres unmarked) [Compound a9-14, N-(1-(5-fluoro-2-(2-methoxyethoxy)phenyl)ethyl)-3-(1-(tetrahydro-2H-pyran-4-yl)-1H-pyrazol-4-yl) pyrazolo [1,5-a] pyrimidin-5-amine]: the IC50 came out at 0.0678 µM.
Still for that read-out and setting: the figure for `C[C@@H](Nc1ccn2ncc(-c3cnn(CC#N)c3)c2n1)c1cc(F)ccc1OCCF` [Compound a12-19, (R)-2-(4-(5-((1-(5-fluoro-2-(2-fluoroethoxy)phenyl)ethyl)amino)pyrazolo [1,5-a]pyrimidin-3-yl)-1H-pyrazol-1-yl) acetonitrile] is 0.0033 µM; for `CC(Nc1ccn2ncc(-c3cnn(C(C)C)c3)c2n1)c1cc(F)ccc1OCCF` (centres unmarked) [Compound a13-20, N-(1-(5-fluoro-2-(2-fluoroethoxy)phenyl)ethyl)-3-(1-isopropyl-1H-pyrazol-4-yl) pyrazolo [1,5-a] pyrimidin-5-amine] it is 0.0202 µM.
For the molecule `CC(Nc1ccn2ncc(-c3cnn(C4CC4)c3)c2n1)c1cc(F)ccc1OCCF` (centres unmarked) [Compound a14-21, 3-(1-cyclopropyl-1H-pyrazol-4-yl)-N-(1-(5-fluoro-2-(2-fluoroethoxy)phenyl)ethyl) pyrazolo [1,5-a] pyrimidin-5-amine], the half-inhibitory concentration (IC50) was 0.012 µM.
On to `CC(Nc1ccn2ncc(-c3cnn(CCO)c3)c2n1)c1cc(F)ccc1OCCF` (centres unmarked) [Compound a15-22, 2-(4-(5-((1-(5-fluoro-2-(2-fluoroethoxy)phenyl)ethyl)amino)pyrazolo [1,5-a]pyrimidin-3-yl)-1H-pyrazol-1-yl) ethanol], for which the IC50 was found to be 0.0079 µM.
On the same count and under the same terms, the figure for `CC(Nc1ccn2ncc(-c3cnn(CC(F)F)c3)c2n1)c1cc(F)ccc1OCCF` (centres unmarked) [Compound a16-23, 3-(1-(2,2-difluoroethyl)-1H-pyrazol-4-yl)-N-(1-(5-fluoro-2-(2-fluoroethoxy)phenyl)ethyl) pyrazolo [1,5-a] pyrimidin-5-amine] is 0.009 µM.
On the same count and under the same terms, the figure for `CC(Nc1ccn2ncc(-c3cnn(C4CCCC4O)c3)c2n1)c1cc(F)ccc1OCCF` (centres unmarked) [Compound a17-24, 2-(4-(5-((1-(5-fluoro-2-(2-fluoroethoxy)phenyl)ethyl)amino)pyrazolo [1,5-a]pyrimidin-3-yl)-1H-pyrazol-1-yl) cyclopentan-1-ol] is 0.0076 µM; for `CC(Nc1ccn2ncc(-c3cnn(C4CCCCC4O)c3)c2n1)c1cc(F)ccc1OCCF` (centres unmarked) [Compound a18-25, 2-(4-(5-((1-(5-fluoro-2-(2-fluoroethoxy)phenyl)ethyl)amino)pyrazolo [1,5-a]pyrimidin-3-yl)-1H-pyrazol-1-yl) cyclohexan-1-ol] it is 0.009 µM; for `CC(Nc1ccn2ncc(-c3cnn(C4CCOCC4)c3)c2n1)c1cc(F)ccc1OCCF` (centres unmarked) [Compound a19-26, N-(1-(5-fluoro-2-(2-fluoroethoxy)phenyl)ethyl)-3-(1-(tetrahydro-2H-pyran-4-yl)-1H-pyrazol-4-yl) pyrazolo [1,5-a] pyrimidin-5-amine] it is 0.0158 µM.
In the case of `C[C@@H](Nc1ccn2ncc(-c3cnn(C4CCCCO4)c3)c2n1)c1cc(F)ccc1OCCF` (stereo partly drawn) [Compound a20-27, N-((R)-1-(5-fluoro-2-(2-fluoroethoxy)phenyl)ethyl)-3-(1-(tetrahydro-2H-pyran-2-yl)-1H-pyrazol-4-yl) pyrazolo [1,5-a] pyrimidin-5-amine], the IC50 came to 0.0028 µM.
For `CC(=O)n1cc(-c2cnn3ccc(NC(C)c4cc(F)ccc4OCCF)nc23)cn1` (centres unmarked) [Compound a21-28, 1-(4-(5-((1-(5-fluoro-2-(2-fluoroethoxy)phenyl)ethyl)amino)pyrazolo [1,5-a]pyrimidin-3-yl)-1H-pyrazol-1-yl) ethanone], the IC50 was determined as 0.0053 µM.
In the case of `CC(Nc1ccn2ncc(-c3cnn(S(C)(=O)=O)c3)c2n1)c1cc(F)ccc1OCCF` (centres unmarked) [Compound a22-29, N-(1-(5-fluoro-2-(2-fluoroethoxy)phenyl)ethyl)-3-(1-(methylsulfonyl)-1H-pyrazol-4-yl) pyrazolo [1,5-a] pyrimidin-5-amine], the IC50 came out at 0.0146 µM.
The same measure, in the same setting: the figure for `CC(Nc1ccn2ncc(-c3cnn(C4CCOCC4)c3)c2n1)c1cc(F)ccc1OCCCF` (centres unmarked) [Compound a25-35, N-(1-(5-fluoro-2-(3-fluoropropoxy)phenyl)ethyl)-3-(1-(tetrahydro-2H-pyran-4-yl)-1H-pyrazol-4-yl) pyrazolo [1,5-a] pyrimidin-5-amine] is 0.0248 µM; for `CC(Nc1ccn2ncc(-c3cnn(C)c3)c2n1)c1cc(F)ccc1OCC1CCOCC1` (centres unmarked) [Compound a28-43, N-(1-(5-fluoro-2-((tetrahydro-2H-pyran-4-yl)methoxy)phenyl)ethyl)-3-(1-methyl-1H-pyrazol-4-yl) pyrazolo [1,5-a] pyrimidin-5-amine] it is 0.11 µM; for `CC(Nc1ccn2ncc(-c3cn[nH]c3)c2n1)c1cc(F)ccc1O` (centres unmarked) [Compound b1-1, 2-(1-((3-(1H-pyrazol-4-yl)pyrazolo [1,5-a]pyrimidin-5-yl)amino)ethyl)-4-fluorophenol] it is 0.0095 µM.
As for `COc1ccc(F)cc1C(C)Nc1ccn2ncc(-c3cn[nH]c3)c2n1` (centres unmarked) [Compound b2-5, N-(1-(5-fluoro-2-methoxyphenyl)ethyl)-3-(1H-pyrazol-4-yl) pyrazolo [1,5-a]pyrimidin-5-amine], the IC50 is 0.0152 µM.
Same read-out and setting: the figure for `COCCOc1ccc(F)cc1C(C)Nc1ccn2ncc(-c3cn[nH]c3)c2n1` (centres unmarked) [Compound b6-15, N-(1-(5-fluoro-2-(2-methoxyethoxy)phenyl)ethyl)-3-(1H-pyrazol-4-yl) pyrazolo [1,5-a] pyrimidin-5-amine] is 0.024 µM; for `CC(Nc1ccn2ncc(-c3cn[nH]c3)c2n1)c1cc(F)ccc1OCC1CC1` (centres unmarked) [Compound b12-37, N-(1-(2-(cyclopropylmethoxy)-5-fluorophenyl)ethyl)-3-(1H-pyrazol-4-yl) pyrazolo [1,5-a] pyrimidin-5-amine] it is 0.0042 µM.
For `CC(Nc1ccn2ncc(-c3cn[nH]c3)c2n1)c1cc(F)ccc1OCC1CCOCC1` (centres unmarked) [Compound b15-42, N-(1-(5-fluoro-2-((tetrahydro-2H-pyran-4-yl)methoxy)phenyl)ethyl)-3-(1H-pyrazol-4-yl) pyrazolo [1,5-a] pyrimidin-5-amine], the half-maximal inhibitory concentration (IC50) was 0.055 µM.

One may read the IC50 as the concentration needed to halve the response being measured.

Values taken from patent US20220177477A1 (Central China Normal University, priority 2019, published 2022).
